Literature values in patent US20240398651A1 (Neuro-Innovators, LLC., priority 2021, published 2024).

Assays:
[1] = in vivo
[2] = previous clinical trials, compared with aspirin

elimination half-life [1]: 11 to 13 h
hemorrhagic events [2]: fewer hemorrhagic events
SMILES: O=C1CCc2cc(OCCCCc3nnnn3C3CCCCC3)ccc2N1 [Cilostazol]
incidence of recurrent stroke [2]: significantly reduce the incidence of recurrent stroke
